Data reported in patent US20140275257A1, “N-ACETYL CYSTEINE COMPOSITIONS IN THE TREATMENT OF SYSTEMIC LUPUS ERYTHEMATOSUS” (Foundation for the State University of New York, priority 2013, published 2014).

How the values were obtained:
mTOR = mTOR activity by phosphorylation of S6 ribosomal protein (pS6-RP) in T-cell subsets; type: in vivo, human; conditions: for pS6-RPhi T cells in the DN T-cell compartment: baseline 22.5±3.7%
Method: mTOR activity was assessed by phosphorylation of its downstream substrate S6 ribosomal protein (pS6-RP) using a monoclonal antibody to pS6-RP (Cell Signaling; Beverly, Mass.; Cat. No. 4851) in cells permeabilized with Cytofix/CytopermPlus (BD Biosciences). […] FIG. 4A: Assessment of pS6-RP in CD3^+, CD4^+, CD8^+, and DN T cells from control (blue histograms) and lupus donors (red histograms). Blue/red values show the percentage of cell populations with increased mTOR activity in control and lupus T-cell subsets, respectively. FIG. 4B: Cumulative analysis of mTOR activity in T-cell subsets of all lupus patients relative to all healthy controls. Values represent mean±SEM of cell populations with increased mTOR activity. p values reflect comparison of lupus and healthy donors with unpaired two-tailed t-test before treatment. FIG. 4C: Effect of NAC on mTOR activity measured by the prevalence of pS6-RP^hi T cells in lupus patients exposed to all doses considered together. p values reflect comparison to pre-treatment visit 1 using two-tailed paired t-test. FIG. 4D: Effect of NAC on CD3/CD28-induced mTOR activity in T cell subsets of lupus patients exposed to all doses considered together.

FoxP3 = FoxP3 expression in T-cell subsets by flow cytometry; type: in vivo, human
Method: Foxp3 expression was measured in permeabilized cells using Alexa-647-conjugated antibody from BioLegend (San Diego, Calif.; cat No 320014). Up to 11 parameters were recorded simultaneously using a Becton Dickinson LSRII flow cytometer equipped with 20 mW solid-state Nd-YAG (emission at 355 nm), 20 mW argon (emission at 488 nm), 10 mW diode pumped solid state yellow-green (emission 561 nm) and 16 mW heliumneon lasers (emission at 634 nm). Each patient's cells were processed and analyzed in parallel with a matched control. […] FIG. 5A: FoxP3 expression in CD4^+/CD25^+ and CD8^+/CD25^+ T cell subsets of lupus and control donors matched for age, gender, and ethnicity by flow cytometry. Red and blue values indicate percentage of FoxP3^+ cells in lupus and control donors, respectively. FIG. 5B: Cumulative analysis of FoxP3 expression in CD25^+ T-cell subsets in lupus subjects and matched controls. p values reflect comparison with two-tailed unpaired t-test. FIG. 5C: Effect of NAC on Foxp3 expression in CD25^+ T cell subsets of lupus patients exposed to all doses considered together. p values reflect comparison with two-tailed paired t-test.

SLE patients = experiment: ADHD Self-Report Scale (ASRS) in SLE patients treated with NAC; type: in vivo, human
Method: The clinical trial design, eligibility criteria, randomization, blinding, monitoring of safety, tolerance and efficacy on NAC in patients with SLE was as described in Example 1, approved by the Food and Drug Administration (IND No: 101,320; clinicaltrials.gov identifier: NCT00775476). As an addendum to the Example 1 study, ASRS was evaluated as an exploratory outcome in 24 SLE patients randomized to receive orally either placebo or NAC in one of two treatment arms: 1,200 mg or 2,400 mg twice daily for three months. 12 patients were enrolled per dosing group, 9 received NAC while 3 received placebo. Due to missing data, 6 patients enrolled in the placebo arm and 8 patients enrolled into each of the two NAC treatment arms could be evaluated.
The ASRS is an 18-item scale that is used to assess the current status of the 18 DSM-IV symptoms of ADHD in adults. (Kessler, R. C. et al., “The World Health Organization Adult ADHD Self-Report Scale (ASRS): a short screening scale for use in the general population,” Psychol. Med., 35(2): 245-256 (2005)). Symptoms are rated on a frequency basis: 0=never, 1=rarely, 2=sometimes, 3=often, and 4=very often. Nine items assess inattention and nine assess hyperactivity-impulsivity. The 9 inattentive symptoms are summed to create the ASRS A subscale; the 9 hyperactive-impulsive symptoms are summed to compute the ASRS B subscale. These two scales are summed to compute the total score. For all scales, higher scores indicate more symptoms. The scale has high concurrent validity with a rater-administered ADHD symptom scale. (Adler, L. A. et al., “Validity of Pilot Adult ADHD Self-Report Scale (ASRS) to Rate Adult ADHD Symptoms,” Ann Clin. Psychiatry 18(3): 145-148 (2006)). As described in Example 1, SLE disease activity was assessed by using the British Isles Lupus Assessment Group (BILAG) (Isenberg, D. A. et al., “BILAG 2004. Development and initial validation of an updated version of the British Isles Lupus Assessment Group's disease activity index for patients with systemic lupus erythematosus,” Rheumatology, 44(7): 902-906 (2005)) and Systemic Lupus Erythematosus Disease Activity Index (SLEDAI) (Hochberg, M. C., “Updating the American College of Rheumatology revised criteria for the classification of systemic lupus erythematosus,” Arth. Rheum., 40(9): 1725 (1997)). Fatigue was estimated using the Fatigue Assessment Scale (FAS) (Michielsen, H. J. et al., “Psychometric qualities of a brief self-rated fatigue measure: The Fatigue Assessment Scale,” J. Psychosom. Res., 54(4): 345-352 (2003)).
Overall clinical effectiveness of NAC relative to placebo was analyzed with multilevel modeling as implemented in the STATA routine XTMIXED (from StataCorp, College Station, Tex.), with the three nested levels being drug group, subject within drug group and study visit within subject. All models included fixed effects for drug group, study visit and the drug group by study visit interaction along with random intercepts at each design level. […] Two-tailed paired t-test was used to assess the effects of placebo and of each and all NAC doses on clinical indices recorded on visits 2-5 relative to visit 1; p<0.05 was considered significant. Patients and controls were compared with two-tailed unpaired t-test. Correlations and t-test were performed with Prism (GraphPad, San Diego, Calif.).

[1] = test system: murine lupus (female NZB×NZW F1 mouse model); conditions: Suwannaroj et al. (2001); cited from earlier work
[2] = NAC Dose 3, end of 3-month treatment

CC(=O)N[C@@H](CS)C(=O)O [NAC, N-acetyl-L-cysteine]
pS6-RPhi T cells in the DN T-cell compartment (mTOR; after 2 months, p=0.0104): 16.9±2.5%
pS6-RPhi T cells in the DN T-cell compartment (mTOR; after 3 months, p=0.0095): 16.4±2.4%
pS6-RPhi T cells in the DN T-cell compartment (mTOR; after 4 months, p=0.0009): 12.1±2.4%
CD3/CD28-induced mTOR activation (mTOR; all T cells after 2 months and 3 months, rebounded after washout): diminished
CD4+/CD25+/FoxP3+ T cells (FoxP3; 4.8 g/day NAC, after 2 months, baseline 3.2±0.6%, p=0.018): 5.2±0.9%
FoxP3 expression in CD25+ DN T cells (FoxP3; after 2-month NAC treatment, baseline 1.29±0.23%, p=0.0160): 2.24±0.38%
percentage of FoxP3+ cells within the CD4+/CD25+ T-cell compartment (FoxP3; all NAC-treated patients, p=0.045): increased
cognitive/inattentive ASRS A scores (SLE patients; NAC Dose 2 (2.4 g/day), z=−3.31, p=0.001): reduced
hyperactivity/impulsive components of ASRS scores (ASRS B scores) (SLE patients; NAC Dose 2 and 3, alone or combined (data not shown)): not affected
ASRS Total scores (SLE patients; NAC Dose 3 (4.8 g/day), after 2 and 3 months of treatment): diminished
cognitive/inattentive ASRS A scores (SLE patients; NAC Dose 3 (4.8 g/day), z=−4.04, p<0.0001): reduced
standardized mean difference effect size (Cohen's D), ASRS A scores (SLE patients; [2]): 0.71
standardized mean difference effect size (Cohen's D), ASRS B scores (SLE patients; [2]): 0.44
standardized mean difference effect size (Cohen's D), ASRS Total scores (SLE patients; [2]): 0.72
ASRS Total scores (SLE patients; NAC Doses 2 and 3 combined, after 3 months): reduced
reduction in ASRS Total scores relative to placebo (multilevel modeling) (SLE patients; NAC Doses 2 and 3 combined, XTMIXED z=−2.09, p=0.037): greater
cognitive/inattentive ASRS A scores (SLE patients; NAC Doses 2 and 3 combined, z=−3.41, p=0.001): reduced
outcome of murine lupus in vivo [1]: improves the outcome
